Assay results taken from patent publication US8217055B2, “Pyrido-pyrazine derivatives useful as herbicidal compounds” (Syngenta Crop Protection LLC, priority 2006, dated 2012).

Tests used:
Experiment in all cases: Example B2 herbicidal action, post-emergence, pots in glasshouse, evaluated after 13 days (10=total damage to plant; 0=no damage to plant)
Format in all cases: in vivo
Settings in all cases: rate 1000 g/ha
Amaranthus retroflexus = system: Amaranthus retroflexus
Description: (§1) Seeds of a variety of test species were sown in standard soil in pots. After 8 days cultivation (post-emergence) under controlled conditions in a glasshouse (at 24/16° C., day/night; 14 hours light; 65% humidity), the plants were sprayed with an aqueous spray solution derived from the formulation of the technical active ingredient in acetone/water (50:50) solution containing 0.5% Tween 20 (polyoxyethelyene sorbitan monolaurate, CAS RN 9005-64-5). The test plants were then grown in a glasshouse under controlled conditions in a glasshouse (at 24/16° C., day/night; 14 hours light; 65% humidity) and watered twice daily. After 13 days, the test was evaluated (10=total damage to plant; 0=no damage to plant).

Echinochloa crus-galli = system: Echinochloa crus-galli
Description: as §1

Solanum nigrum = system: Solanum nigrum
Description: as §1

Setaria faberi = system: Setaria faberi
Description: as §1

Ipomea hederaceae = system: Ipomea hederaceae
Description: as §1

| Compound | AMARE damage score (10=total damage to plant; 0=no damage to plant) (Amaranthus retroflexus) | ECHCG damage score (10=total damage to plant; 0=no damage to plant) (Echinochloa crus-galli) | SOLNI damage score (10=total damage to plant; 0=no damage to plant) (Solanum nigrum) | SETFA damage score (10=total damage to plant; 0=no damage to plant) (Setaria faberi) | IPOHE damage score (10=total damage to plant; 0=no damage to plant) (Ipomea hederaceae) |
| --- | --- | --- | --- | --- | --- |
| CC(C)(C)C(=O)Oc1c(-c2c(Cl)cc(C(F)(F)F)cc2Cl)c(=O)n(CC(F)F)c2nccnc12 [A9] | 10 | 7 | 10 | 9 | – |
| CC(C)(C)C(=O)Oc1c(-c2ccc(C(F)(F)F)cc2Br)c(=O)n(CC(F)F)c2nccnc12 [A10] | 10 | 4 | 9 | 3 | 5 |
| CC(C)(C)C(=O)Oc1c(-c2c(Cl)cc(OC(F)(F)F)cc2Cl)c(=O)n(CC(F)F)c2nccnc12 [A11] | 10 | 9 | 10 | 9 | 10 |
| CCc1cc(C)cc(CC)c1-c1c(OC(=O)C(C)C)c2nccnc2n(CC(F)F)c1=O [A12] | 3 | 9 | 10 | 10 | 9 |
| CC(C)C(=O)Oc1c(-c2cc(F)ccc2Cl)c(=O)n(CC(F)F)c2nccnc12 [A13] | 10 | 8 | 10 | 9 | 10 |
| CC(C)(C)C(=O)Oc1c(-c2cc(F)ccc2Cl)c(=O)n(CC(F)F)c2nccnc12 [A14] | 10 | 7 | 10 | 9 | 10 |
| COc1cccc(-c2c(OC(=O)C(C)C)c3nccnc3n(CC(F)F)c2=O)c1OC [A15] | 6 | 8 | 10 | 9 | 9 |
| COc1cccc(-c2c(OC(=O)C(C)(C)C)c3nccnc3n(CC(F)F)c2=O)c1OC [A16] | 8 | 3 | 10 | 8 | 7 |
| CC(C)(C)C(=O)Oc1c(-c2cc(F)c(Cl)cc2Cl)c(=O)n(CC(F)F)c2nccnc12 [A17] | 3 | 6 | 5 | 7 | 0 |
| CC(C)(C)C(=O)Oc1c(-c2c(F)ccc(Br)c2Cl)c(=O)n(CC(F)F)c2nccnc12 [A19] | 10 | 7 | 10 | 8 | 9 |
| CC(C)C(=O)Oc1c(-c2cc(F)c(Cl)cc2Cl)c(=O)n(CC(F)F)c2nccnc12 [A20] | 10 | 7 | 9 | 8 | 7 |
| COc1ccc(OC(F)(F)F)cc1-c1c(OC(=O)C(C)C)c2nccnc2n(CC(F)F)c1=O [A23] | 10 | 8 | 10 | 9 | 9 |
| Cc1cc(C)c(-c2c(OC(=O)C(C)(C)C)c3nccnc3n(CC(F)F)c2=O)c(C)c1 [A25] | 7 | 7 | 10 | 7 | 8 |
| CC(C)C(=O)Oc1c(-c2ccccc2OC(F)F)c(=O)n(CC(F)F)c2nccnc12 [A26] | 10 | 2 | 5 | 2 | 5 |
| COc1ccc(OC(F)(F)F)cc1-c1c(OC(=O)C(C)(C)C)c2nccnc2n(CC(F)F)c1=O [A27] | 9 | 7 | 9 | 7 | 7 |
| CC(C)(C)C(=O)Oc1c(-c2ccccc2OC(F)F)c(=O)n(CC(F)F)c2nccnc12 [A28] | 9 | 1 | 10 | 3 | 8 |
| CC(C)(C)C(=O)Oc1c(-c2c(F)ccc(Cl)c2Cl)c(=O)n(CC(F)F)c2nccnc12 [A32] | 10 | 4 | 10 | 7 | 9 |
| CC(C)(C)C(=O)Oc1c(-c2cc(F)c(F)cc2Cl)c(=O)n(CC(F)F)c2nccnc12 [A33] | 10 | 4 | 10 | 7 | 7 |
| CC(C)(C)C(=O)Oc1c(-c2c(F)cccc2Cl)c(=O)n(CC(F)F)c2nccnc12 [A34] | 10 | 4 | 10 | 6 | 9 |
| CC(C)(C)C(=O)Oc1c(-c2cc(Cl)ccc2C(F)(F)F)c(=O)n(CC(F)F)c2nccnc12 [A37] | 6 | 5 | 5 | 7 | 7 |
| COc1ccc(Br)cc1-c1c(OC(=O)C(C)(C)C)c2nccnc2n(CC(F)F)c1=O [A38] | 10 | 6 | 9 | 8 | 6 |
